Among the data in PubChem BioAssay (NCI) are GI50 and TGI values, retold here.

Values joined by “and” are separate entries in the source; they are usually repeats but may differ in a detail not shown here. Equal entries are not always repeated.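 1) Cells in 96-well plates. 2) Compound, 48 h, 5 concentrations. 3) Linear interpolation between surrounding doses. 4) Unreached endpoint = highest concentration. Abbreviation: GI50, concentration required for 50% inhibition of growth. TGI marks complete inhibition of growth.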

Some test systems named below: K-562 leukemia; MDA-MB-435; 786-0 renal; RXF 393 renal; SNB-75 CNS; LOX IMVI melanoma; COLO 205 colon; KM12 colon; SR leukemia; HCC-2998 colon.
Holding throughout (assay): growth of human tumour cells (NCI), 48 h

Take `CN1CCN(CCCN2c3ccccc3Sc3ccc(C(F)(F)F)cc32)CC1`: the GI50 is 2.13 µM and 2.01 µM and 4.6 µM with K-562 leukemia; 1.69 µM in the assay with MDA-MB-435; 1.78 µM in the assay with 786-0 renal; 1.78 µM and 10 µM and 4.08 µM with RXF 393 renal; 6.4 µM with SNB-75 CNS; 1.59 µM with LOX IMVI melanoma. The GI50 was 1.64 µM and 1.8 µM and 3.87 µM in the assay on COLO 205 colon; 1.85 µM in the assay on KM12 colon; 2.72 µM and 2.09 µM and 8.62 µM in the assay with SR leukemia; 1.42 µM and 1.64 µM and 3.82 µM in the assay on HCC-2998 colon. Moreover, the TGI is 4.27 µM and 28.6 µM in the assay on K-562 leukemia; 3.29 µM and 9.49 µM and 11.4 µM in the assay on MDA-MB-435; 3.33 µM and 16.1 µM and 21.6 µM in the assay on 786-0 renal; 4.62 µM and 23.1 µM and 15.5 µM in the assay on RXF 393 renal; 22.7 µM and 16.8 µM and 20.8 µM in the assay on SNB-75 CNS; 3.28 µM and 8.79 µM and 11.2 µM in the assay on LOX IMVI melanoma. In addition, the TGI is 3.15 µM and 3.65 µM and 9.3 µM with COLO 205 colon; 3.48 µM and 10.7 µM and 11.4 µM in the assay with KM12 colon; 7.95 µM and > 20.4 µM and 27.2 µM with SR leukemia; 3.02 µM and 3.21 µM and 8.68 µM with HCC-2998 colon.
As to `CNC(=O)c1c(NC(=O)c2ccc(C(C)C)cc2)sc2c1CCC(=O)C2`, the GI50 with K-562 leukemia was 0.108 µM; in the assay with MDA-MB-435 it was 1.07 µM; in the assay on 786-0 renal, 0.636 µM; in the assay on RXF 393 renal, 0.289 µM; in the assay with SNB-75 CNS it was 1.05 µM; with LOX IMVI melanoma, 0.24 µM. Further, the GI50 in the assay on COLO 205 colon was 0.288 µM; in the assay on KM12 colon, 0.404 µM; in the assay on SR leukemia it was 0.273 µM; in the assay on HCC-2998 colon, 0.906 µM. Also, the TGI was more than 100 µM in the assay on K-562 leukemia; 3.93 µM in the assay with MDA-MB-435; 3.91 µM in the assay on 786-0 renal; 1.38 µM in the assay with RXF 393 renal; 3.53 µM in the assay with SNB-75 CNS; 1.29 µM in the assay on LOX IMVI melanoma. Besides, the TGI in the assay with COLO 205 colon was determined as 0.914 µM; in the assay on KM12 colon it was 1.69 µM; in the assay with SR leukemia it was 4.45 µM; in the assay on HCC-2998 colon, 2.94 µM.
Regarding `O=C(c1ccncc1)N1CCN(C2=NS(=O)(=O)c3ccccc3N2c2ccccc2)CC1`, the GI50 with K-562 leukemia is 7.79 µM; in the assay on MDA-MB-435 it was 18.9 µM; in the assay on 786-0 renal, 7.37 µM; in the assay with RXF 393 renal, 18.5 µM; with SNB-75 CNS it was 15.5 µM; in the assay with LOX IMVI melanoma, 11.5 µM. The GI50 in the assay with COLO 205 colon was 30.3 µM; in the assay on KM12 colon it was 29.2 µM; with SR leukemia, 0.177 µM; with HCC-2998 colon, 16.3 µM. For the same molecule, the TGI is more than 100 µM with K-562 leukemia; 40 µM with MDA-MB-435; 37.2 µM in the assay with 786-0 renal; 40.5 µM with RXF 393 renal; 53.2 µM in the assay on SNB-75 CNS; more than 100 µM in the assay with LOX IMVI melanoma. The TGI in the assay with COLO 205 colon was more than 100 µM; in the assay on KM12 colon, more than 100 µM; in the assay with SR leukemia it was 2.42 µM; with HCC-2998 colon, 37.6 µM.
Consider `COc1cccc2cc(-c3nc(C4CCC(C(=O)O)CC4)n4ncnc(N)c34)[nH]c12` (stereo not given), for which the GI50 in the assay on K-562 leukemia is 0.499 µM and 2.63 µM; with MDA-MB-435 it was 0.288 µM and 0.531 µM; in the assay on 786-0 renal it was 0.344 µM and 0.488 µM; in the assay on RXF 393 renal, 0.186 µM and 0.299 µM; with SNB-75 CNS, 0.0952 µM and 0.152 µM; in the assay with LOX IMVI melanoma, 0.368 µM and 0.825 µM. For the same molecule, the GI50 in the assay on COLO 205 colon is 1.07 µM and 0.542 µM; with KM12 colon, 0.33 µM and 0.59 µM; with SR leukemia, 0.295 µM and 0.31 µM; in the assay on HCC-2998 colon it was 0.451 µM and 0.729 µM. The TGI with K-562 leukemia was more than 100 µM; with MDA-MB-435, 3.08 µM and 6.84 µM; with 786-0 renal it was 6.57 µM and 5.44 µM; in the assay with RXF 393 renal, 0.954 µM and 3.27 µM; with SNB-75 CNS it was 1.03 µM and 1.3 µM; in the assay on LOX IMVI melanoma it was 4.85 µM and > 10 µM. Further, the TGI is 13.5 µM and > 8.26 µM with COLO 205 colon; more than 100 µM with KM12 colon; more than 36.3 µM in the assay on SR leukemia; 35.3 µM and > 10 µM in the assay on HCC-2998 colon.
For the molecule `O=C(Nc1ccc(O)c(NS(=O)(=O)c2ccc(F)cc2)c1)c1ccc(-c2ccccc2)cc1`, the GI50 is 3.68 µM with K-562 leukemia; 8.12 µM in the assay on MDA-MB-435; 7.87 µM with 786-0 renal; 2.53 µM in the assay on RXF 393 renal; 2.68 µM with SNB-75 CNS; 6.18 µM in the assay on LOX IMVI melanoma. Also, the GI50 in the assay on COLO 205 colon is 15.6 µM; in the assay with KM12 colon it was 10 µM; in the assay on SR leukemia, 2.47 µM; with HCC-2998 colon it was 17.5 µM. The TGI in the assay on K-562 leukemia was 14.6 µM; in the assay with MDA-MB-435, 26 µM; in the assay with 786-0 renal it was 22.7 µM; in the assay with RXF 393 renal, 10.7 µM; in the assay with SNB-75 CNS, 15.7 µM; in the assay on LOX IMVI melanoma it was 21.1 µM. The TGI was found to be 31.2 µM with COLO 205 colon, 23.3 µM in the assay on KM12 colon, 9.3 µM in the assay on SR leukemia and 45.3 µM in the assay with HCC-2998 colon.
For `C=C(CN(C)C)C(=O)c1ccc(OC)cc1`, the TGI with K-562 leukemia was determined as 4.39 µM; with MDA-MB-435, 26.4 µM; in the assay on 786-0 renal, 5.78 µM; with RXF 393 renal, 24.9 µM; in the assay on SNB-75 CNS, 39.9 µM; in the assay on LOX IMVI melanoma, 25.4 µM. Besides, the TGI with COLO 205 colon was 1.39 µM; in the assay with KM12 colon, 39.4 µM; in the assay on SR leukemia it was 5.27 µM; with HCC-2998 colon it was 22.4 µM.
Turning to `CCNC(=O)c1ccc2c(c1)nc(-c1ccc(Cl)cc1)n2-c1cc(C(C)(C)C)[nH]n1`, the GI50 was 3.35 µM in the assay on K-562 leukemia; 1.09 µM in the assay on MDA-MB-435; 3.48 µM in the assay on 786-0 renal; 1.81 µM in the assay with RXF 393 renal; 2.17 µM in the assay with SNB-75 CNS; 3.54 µM in the assay with LOX IMVI melanoma. Moreover, the GI50 in the assay on COLO 205 colon was 3.5 µM; in the assay on KM12 colon, 3.12 µM; with SR leukemia, 1.06 µM; with HCC-2998 colon, 3.96 µM. For the same molecule, the TGI in the assay on K-562 leukemia is 16.8 µM; with MDA-MB-435 it was 5.35 µM; in the assay with 786-0 renal it was 47.4 µM; in the assay on RXF 393 renal it was 5.55 µM; in the assay on SNB-75 CNS, 12 µM; in the assay on LOX IMVI melanoma it was 14.4 µM. The TGI was found to be 14.4 µM in the assay on COLO 205 colon, 36.8 µM with KM12 colon, 9.32 µM in the assay on SR leukemia and 26.7 µM with HCC-2998 colon.
